Values of other authors in patent publication US11858951B2, “Boronic acid derivatives” (Merck Patent GmbH, priority 2017, dated 2024).

Target: LMP7 subunit of the immunoproteasome (Homo sapiens, UniProt P28062)
Conditions: background, Singh et al 2011; cited from earlier work

CC1=C(C(=O)N[C@H](C)C(=O)N[C@@H](Cc2c[nH]c3ccccc23)C(=O)N[C@@H](Cc2ccccc2)C(=O)[C@@]2(C)CO2)Cc2ccccc21 [PR-924]
selectivity for the LMP7 subunit of the immunoproteasome: 100 fold
